For data set [1], the target named is CDK2 (Homo sapiens, UniProt P24941). The data set can be described thus: KINOMEscan select kinase screen. The format is binding. The following applies: two experiments. The protocol: (§1) Kinase Assays. The kinase inhibition assays were conducted by DiscoverX on a platform assay by Ambit BioSciences as described previously 16,17. FKK6 was screened at a single concentration of 10 μM in duplicate. The scanMAXSM assay panel measures 468 kinases
(§2) (https://www.discoverx.com/services/drug-discovery-development-services/kinase-profiling/kinomescan/scanmax). The assays measure a compound’s ability to inhibit binding of a canonical ligand substrate, with 0% activity of control corresponding to full inhibition and 100% activity of control to no inhibition. […]
(§3) quantitative measure of compound selectivity based on the number of kinase hits (enzymes inhibited) divided by the total number of distinct kinases tested. Three different activity cut-offs were analyzed – […]
(§4) ; and S(1) or % activity of control
(§5) < 1. To illustrate effect or lack of effect, an image of the entire family of kinases tested were grouped by families and S(35). The TREEspot Kinase dendrogram image was generated using TREEspot™ Software Tool and reprinted with permission from KINOME scan®, a division of DiscoveRx […]

Data set [2] has as its target CDK4 (Homo sapiens, UniProt P11802). Nature of the data set: KINOMEscan select kinase screen. The format is binding. As to conditions: two experiments. The protocol: as §1, §2, §3, §4, §5
Data set [3] has as its target ERK3 (Homo sapiens, UniProt Q16659). Nature of the data set: KINOMEscan select kinase screen. The class given is binding. As to conditions: two experiments. The procedure: as §1, §2, §3, §4, §5
Data set [4] concerns the target T1, ERK8 (Homo sapiens, UniProt Q8TD08).
T1 sequence (Q8TD08 1-544): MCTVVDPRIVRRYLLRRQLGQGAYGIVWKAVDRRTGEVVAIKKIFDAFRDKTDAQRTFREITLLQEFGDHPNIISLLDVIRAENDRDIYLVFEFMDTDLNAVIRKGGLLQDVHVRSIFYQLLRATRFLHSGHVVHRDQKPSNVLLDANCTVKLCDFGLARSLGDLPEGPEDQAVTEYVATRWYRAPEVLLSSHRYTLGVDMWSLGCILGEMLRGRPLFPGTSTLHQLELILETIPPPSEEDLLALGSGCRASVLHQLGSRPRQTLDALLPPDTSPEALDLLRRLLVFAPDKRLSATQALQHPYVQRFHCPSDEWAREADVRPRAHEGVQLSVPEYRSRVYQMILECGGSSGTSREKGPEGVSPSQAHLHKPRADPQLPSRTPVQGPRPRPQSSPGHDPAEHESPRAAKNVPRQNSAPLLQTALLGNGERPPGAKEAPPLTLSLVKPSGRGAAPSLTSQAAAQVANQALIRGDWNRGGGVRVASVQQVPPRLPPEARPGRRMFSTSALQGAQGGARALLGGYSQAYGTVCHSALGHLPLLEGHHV
Nature of the data set: KINOMEscan select kinase screen. The class given is binding. The following applies: two experiments. The procedure:
as §1, §2, §3, §4, §5

The target in data set [5] is GSK3B (Homo sapiens, UniProt P49841). Nature of the data set: KINOMEscan select kinase screen. The class given is binding. As to conditions: two experiments. The procedure: as §1, §2, §3, §4, §5
Sequence of GSK3B (P49841 whole entry): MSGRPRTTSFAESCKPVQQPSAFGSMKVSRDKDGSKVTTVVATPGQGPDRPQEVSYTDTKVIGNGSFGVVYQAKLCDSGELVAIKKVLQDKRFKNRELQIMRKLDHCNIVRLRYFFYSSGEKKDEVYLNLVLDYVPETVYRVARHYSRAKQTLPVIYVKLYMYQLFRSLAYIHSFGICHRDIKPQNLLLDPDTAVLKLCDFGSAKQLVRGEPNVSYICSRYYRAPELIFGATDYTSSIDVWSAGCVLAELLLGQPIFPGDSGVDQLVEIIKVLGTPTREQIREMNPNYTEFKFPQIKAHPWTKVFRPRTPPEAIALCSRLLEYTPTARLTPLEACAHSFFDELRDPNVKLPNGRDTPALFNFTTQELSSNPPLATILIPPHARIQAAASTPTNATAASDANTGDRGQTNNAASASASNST
Data set [6] concerns mice. The data set can be described thus: 30 Day toxicity study in mice. The class given is in vivo, mouse. The procedure: The LS180 cell line was used to assess cell cytotoxicity using the MTT (3‐(4,5‐dimethylthiazolyl‐2)‐2,5‐diphenyltetrazolium bromide) assay as previously described (Bartonkova et al, 2015, 2016). […] FKK6 was selected as a lead compound for assessment, given that it had the more favorable PXR‐selective ligand activity in cells. […] The mice were gavaged for ten consecutive days and necropsied on day 12 with the collection of blood (serum). […] Similarly, a 30‐day toxicity test was conducted in mice using FKK6 at an oral dose of 200 μM in 0.8% DMSO per day. We chose this dose to stay within the safe DMSO dose administered to mice over 30 days. On day 30, we necropsied the mice and collected blood (serum).

The mark [7] stands for this setting: oral 200 μM in 0.8% DMSO per day, 30 days.

Several values for one entry are separate records, joined by “and”; a condition that tells them apart may be missing. Equal values may be shown once.

Sequence of ERK3 (Q16659 whole entry): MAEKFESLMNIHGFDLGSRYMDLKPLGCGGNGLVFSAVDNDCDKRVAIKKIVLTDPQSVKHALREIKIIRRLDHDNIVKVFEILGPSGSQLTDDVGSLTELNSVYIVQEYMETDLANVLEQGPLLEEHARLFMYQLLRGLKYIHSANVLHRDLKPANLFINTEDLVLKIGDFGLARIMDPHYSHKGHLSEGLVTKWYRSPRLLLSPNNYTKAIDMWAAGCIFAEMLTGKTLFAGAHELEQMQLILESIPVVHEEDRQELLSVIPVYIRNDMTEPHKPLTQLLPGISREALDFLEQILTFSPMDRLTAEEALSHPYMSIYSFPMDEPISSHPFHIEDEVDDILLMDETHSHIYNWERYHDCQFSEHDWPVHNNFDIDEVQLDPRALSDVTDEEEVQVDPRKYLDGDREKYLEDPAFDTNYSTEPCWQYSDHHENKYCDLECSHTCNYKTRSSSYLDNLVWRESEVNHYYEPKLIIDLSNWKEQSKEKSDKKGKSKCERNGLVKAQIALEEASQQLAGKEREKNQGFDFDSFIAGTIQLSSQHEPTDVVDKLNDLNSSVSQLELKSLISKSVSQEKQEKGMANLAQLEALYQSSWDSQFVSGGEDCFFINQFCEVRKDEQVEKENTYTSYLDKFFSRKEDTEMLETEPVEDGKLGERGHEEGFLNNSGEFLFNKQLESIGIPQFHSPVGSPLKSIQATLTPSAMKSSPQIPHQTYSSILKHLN
Sequence of CDK4 (P11802 whole entry): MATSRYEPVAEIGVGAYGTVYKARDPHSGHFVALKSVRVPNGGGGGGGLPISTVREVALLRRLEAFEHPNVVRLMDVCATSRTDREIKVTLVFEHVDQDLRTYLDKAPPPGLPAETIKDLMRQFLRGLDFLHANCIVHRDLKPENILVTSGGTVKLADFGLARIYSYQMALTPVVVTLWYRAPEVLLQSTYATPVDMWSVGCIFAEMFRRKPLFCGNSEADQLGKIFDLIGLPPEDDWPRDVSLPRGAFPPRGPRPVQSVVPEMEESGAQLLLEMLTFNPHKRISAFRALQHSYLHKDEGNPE

In the case of `O=C(c1ccncc1)c1cc2ccccc2n1S(=O)(=O)c1ccccc1` [FKK5, (1-(phenylsulfonyl)-1H-indol-2-yl)(pyridin-4-yl)methanone], the “%Ctrl” value in data set [1] (10000 nM, 10 µM) was 100 %Ctrl and 74 %Ctrl; in data set [1] (25000 nM, 25 µM), 89 %Ctrl and 63 %Ctrl; in data set [2] (10000 nM, 10 µM) it was 98 %Ctrl; in data set [2] (25000 nM, 25 µM) it was 90 %Ctrl; in data set [3] (10000 nM, 10 µM) it was 88 %Ctrl; in data set [3] (25000 nM, 25 µM) it was 93 %Ctrl. Also, the “%Ctrl” value in data set [4] (10000 nM, 10 µM) was 97 %Ctrl and 71 %Ctrl; in data set [4] (25000 nM, 25 µM), 65 %Ctrl; in data set [5] (10000 nM, 10 µM), 92 %Ctrl; in data set [5] (25000 nM, 25 µM), 90 %Ctrl. Further, the remaining binding at 10 µM was found to be 100% in data set [2] (10000 nM, read-out: %Ctrl); 100% in data set [3] (10000 nM, read-out: %Ctrl); 100% in data set [5] (10000 nM, read-out: %Ctrl). For the same compound, the remaining binding at 25 µM in data set [2] (25000 nM, read-out: %Ctrl) is 95%; in data set [3] (25000 nM, read-out: %Ctrl), 80%; in data set [4] (25000 nM, read-out: %Ctrl), 75%; in data set [5] (25000 nM, read-out: %Ctrl) it was 98%.
As to `C#CCC(O)(c1ccncc1)c1cc2ccccc2n1S(=O)(=O)c1ccccc1` (stereo not shown) [FKK6], in data set [6] (30 day, n=6), the “Histopathology: Liver” value is on record as “Mild perivascular lymphohistiocytic aggregates (n=4)”, the “Histopathology: Lung” value is “Mild leukocytes (n=2)” and the “Histopathology: Spleen” value is given as “Mild lymphoid hyperplasia (n=2)”. Moreover, in data set [6] (setting [7]), the serum chemistry profiles result is given as “did not significantly alter serum chemistry profiles”; the “tissue pathology vs vehicle” value was “did not significantly alter serum chemistry profiles (Fig EV3C and D) or impact tissue pathology”.
